In general, MIC refers to the lowest concentration found to suppress growth.

The structures appear in SMILES notation. Values after ≈ are worked out from the molar mass of the structure shown.

What all share (type): functional
Assay [1] deals with Pseudomonas aeruginosa. The assay is described as follows: Antibacterial activity against Pseudomonas aeruginosa 100036 assessed as fractional inhibitory concentration incubated for 18 hrs in presence of doxycycline by broth microdilution assay. (Dilution methods test growth across graded concentrations, often in twofold steps.)
The subject of assay [2] is Pseudomonas aeruginosa. The experiment in a line: Antibacterial activity against Pseudomonas aeruginosa 260-97103 assessed as fractional inhibitory concentration index in presence of doxycycline incubated for 18 hrs by broth microdilution assay.
For assay [3], the system named is Staphylococcus epidermidis. The experiment in a line: Antibacterial activity against methicillin-susceptible Staphylococcus epidermidis CANWARD 81388 assessed as reduction in bacterial growth incubated for 18 hrs by broth microdilution assay.
Assay [4] deals with Pseudomonas aeruginosa. The assay is described as follows: Antibacterial activity against Pseudomonas aeruginosa 262-101856 assessed as fractional inhibitory concentration incubated for 18 hrs in presence of chloramphenicol by broth microdilution assay.
Assay [5] has as its system Pseudomonas aeruginosa. The experiment in a line: Antibacterial activity against Pseudomonas aeruginosa 101885 assessed as reduction in bacterial growth incubated for 18 hrs by broth microdilution assay.
In assay [6] the test system is Pseudomonas aeruginosa. The assay is described as follows: Antibacterial activity against Pseudomonas aeruginosa 264-101354 assessed as fractional inhibitory concentration index in presence of chloramphenicol incubated for 18 hrs by broth microdilution assay.
Assay [7] concerns Staphylococcus aureus. The assay is described as follows: Antibacterial activity against Staphylococcus aureus ATCC 29213 assessed as reduction in bacterial growth incubated for 18 hrs by broth microdilution assay.
Assay [8] concerns Pseudomonas aeruginosa. The assay is described as follows: Antibacterial activity against Pseudomonas aeruginosa 100036 assessed as reduction in bacterial growth incubated for 18 hrs by broth microdilution assay.
Assay [9] has as its system Pseudomonas aeruginosa. The assay is described as follows: Antibacterial activity against Pseudomonas aeruginosa 101243 assessed as fractional inhibitory concentration incubated for 18 hrs in presence of chloramphenicol by broth microdilution assay.
For assay [10], the system named is Pseudomonas aeruginosa. The experiment in a line: Antibacterial activity against Pseudomonas aeruginosa 264-101354 assessed as fractional inhibitory concentration incubated for 18 hrs in presence of doxycycline by broth microdilution assay.
Assay [11] has as its system Pseudomonas aeruginosa. The assay is described as follows: Antibacterial activity against Pseudomonas aeruginosa 101243 assessed as fractional inhibitory concentration incubated for 18 hrs in presence of doxycycline by broth microdilution assay.
In assay [12] the test system is Pseudomonas aeruginosa. The assay is described as follows: Antibacterial activity against Pseudomonas aeruginosa 91433 assessed as fractional inhibitory concentration index in presence of doxycycline incubated for 18 hrs by broth microdilution assay.
Assay [13] concerns Pseudomonas aeruginosa. The assay is described as follows: Antibacterial activity against Pseudomonas aeruginosa 200 harboring efflux mutant assessed as reduction in bacterial growth incubated for 18 hrs by broth microdilution assay.
Assay [14] deals with Pseudomonas aeruginosa. The experiment in a line: Antibacterial activity against Pseudomonas aeruginosa 262-101856 assessed as fractional inhibitory concentration incubated for 18 hrs in presence of doxycycline by broth microdilution assay.

As to `NC[C@H]1O[C@H](O[C@H]2[C@H](O)[C@@H](O[C@H]3O[C@H](CO)[C@@H](O)[C@H](N)[C@H]3O)[C@H](N)C[C@@H]2N)[C@H](N)C[C@@H]1O` [TOBRAMYCIN], the FIC in assay [1] is given as 0.5; in [4], “<=0.5”; in assay [9] it was 0.5; in assay [10] it was 0.5; in assay [11], 0.5; in assay [14], “<=0.5”. Also, the entries for the “fractional inhibitory concentration index (FICI)” value in [2], in assay [6] and in [12] were 1.5, 1 and 1.5, respectively. The MIC in assay [3] is no more than 0.25 mg/L; in [5], 1 mg/L (≈ 2.14 µM); in assay [7], 0.5 mg/L (≈ 1.07 µM); in assay [8] it was 128 mg/L (≈ 274 µM); in assay [13], 0.5 mg/L (≈ 1.07 µM).

For the origin of these results see ChEMBL document CHEMBL4715829, “Heterodimeric Rifampicin-Tobramycin conjugates break intrinsic resistance of Pseudomonas aeruginosa to doxycycline and chloramphenicol in vitro and in a Galleria mellonella in vivo model” (Eur J Med Chem, 2019).
